Key:
11β-HSD2 Dehydrogenase = target: T1, 11β-HSD2 Dehydrogenase (Ovis aries, UniProt P50168); test: 11β-HSD2 dehydrogenase inhibition, sheep kidney microsomes; assay type: biochemical; conditions: result in words
T1 construct: sheep kidney microsomes; from tissue; host or cells: sheep kidney microsomes
T1 sequence (P50168 1-427): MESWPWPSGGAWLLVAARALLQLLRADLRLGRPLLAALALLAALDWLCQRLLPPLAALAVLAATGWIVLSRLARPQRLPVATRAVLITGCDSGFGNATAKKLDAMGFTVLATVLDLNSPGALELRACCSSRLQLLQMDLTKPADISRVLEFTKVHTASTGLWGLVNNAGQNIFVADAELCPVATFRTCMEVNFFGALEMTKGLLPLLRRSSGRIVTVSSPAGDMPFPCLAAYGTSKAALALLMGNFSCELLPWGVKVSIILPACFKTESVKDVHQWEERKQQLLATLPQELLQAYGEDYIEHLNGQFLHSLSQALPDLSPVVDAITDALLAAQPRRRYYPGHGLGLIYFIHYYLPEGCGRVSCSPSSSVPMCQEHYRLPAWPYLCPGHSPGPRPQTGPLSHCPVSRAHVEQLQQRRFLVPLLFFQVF

rat aortic rings = test: Contractile response of rat aortic rings to phenylephrine; conditions: rat aortic rings, 24 h, 11-dehydro-corticosterone 100 nmol/L
Description: Male Sprague-Dawley (150-200 g) rats were anesthetized with pentobarbital (50 mg/kg IP), and a median sternotomy was performed followed by the rapid removal of the thoracic aorta. The adventitia was removed, but the endothelium was left intact. The aorta was cut into 2-3 mm rings and individual rings were placed into a single well of a twenty four well culture plate and incubated at 37° C. under 95% O2-5% CO2. Each well contained 1 mL of DMEM/F12 containing 1% fetal bovine serum, streptomycin (100 μg/ml), penicillin (100 units/ml) and amphotericin (0.25 μg/ml). Aortic rings were incubated for 24 hours prior to contractility measurements with the following combinations of steroids, and antisense/nonsense oligonucleotides (3 μmol/L):
Antisense phosphorothioate oligonucleotides, targeted to block either 11β-HSD2 or 11β-HSD1 gene expression, were obtained from Research Genetics, Huntsville Ala. Antisense oligomers complementary to 20 bp sequences spanning the ribosome binding/translation start site were used. Oligomer sequences were: 5′-CATAACTGCCGTCCAACAGC-3′ (SEQ ID No.: 2) for 11β-HSD1 Antisense and 5′-AGCCCAGCGCTCCATGACTT-3′ (SEQ ID No. 3) for 111-HSD2 antisense. In control experiments the corresponding sense sequence was used as the nonsense oligomer. Antisense and nonsense oligomers were added directly to each well at 20 μg/10:1 sterile H20 per well for a final concentration of 3 μmol/L.
For contraction measurements, aortic rings were suspended by tungsten wires with 1 g of tension and placed in a vessel bath containing serum free DMEM/F12 media at 37° C. aerated with 95% O2-5% CO2, at pH 7.4. Vessels were equilibrated for 20 minutes and then tested with phenylephrine ([…]-10 μmol/L). […] The intensity of contraction was assessed by use of a Narishige micromanipulator and model FT03 force transducer (Grass Instrument Co. West Warwick, R.I.). Measurements were recorded on computer using the Labview 4.1 Virtual Instrument System (National Instruments, Austin, Tex.).

11β-HSD1 Reductase = target: T2, 11β-HSD1 Reductase (Rattus norvegicus, UniProt P16232); test: 11β-HSD1 reductase inhibition, testicular Leydig cell homogenates; assay type: biochemical; conditions: result in words
T2 construct: testicular leydig cell homogenates; from tissue; host or cells: testicular Leydig cell homogenates
T2 sequence (P16232 whole entry): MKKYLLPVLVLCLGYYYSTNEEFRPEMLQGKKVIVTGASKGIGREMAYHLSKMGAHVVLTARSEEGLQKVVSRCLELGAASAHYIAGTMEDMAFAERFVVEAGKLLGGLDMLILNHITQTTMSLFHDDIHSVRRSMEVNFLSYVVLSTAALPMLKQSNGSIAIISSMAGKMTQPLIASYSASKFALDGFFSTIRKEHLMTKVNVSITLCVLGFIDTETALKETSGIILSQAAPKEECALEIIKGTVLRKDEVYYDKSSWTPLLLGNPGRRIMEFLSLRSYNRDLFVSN

[1] = tested on: 11β-HSD1-reductase activity in rat aortic rings; test: Conversion of 3H-11-dehydrocorticosterone to corticosterone by aortic rings; conditions: vascular tissue
Description: (ii) ^3H-11-dehydro-corticosterone (10 nmol/L)±11β-HSD1 antisense (3 μmol/L); this experiment was performed in duplicate (n=10 aortic rings per well). Control groups were incubated with the appropriate nonsense oligomer. ^3H-corticosterone in the incubation medium after 24 hrs was then measured. In this experiment, aortic rings were also analyzed for ^3H-corticosterone content. Rings from duplicate incubations (total n=20) were blotted dry, pooled and homogenized in 50% methanol using a Polytron. The homogenates were then centrifuged, extracted as below using Sep-Paks and injected onto a HPLC system for analysis.
Incubation media was collected, ran through a Sep-Pak and eluted with 3 mls of methanol, the eluate was then dried under nitrogen and reconstituted in 500:1 methanol. The aortic rings were dried and weighed. The steroids present in the eluate were separated by high-pressure liquid chromatography with a Dupont Zorbax C8 column eluted at 44° C. at a flow rate of 1 mL/min using 55% methanol for 10 minutes. Steroids were observed by monitoring radioactivity on-line with a Packard Radiomatic Flo-One/Beta Series A-500 counter connected to a Dell Optiflex 425 S/L computer. Corticosterone and 11-dehydro-corticosterone were identified by comparing their retention times with that of known standards.

11β-HSD1 Dehydrogenase = target: T3, 11β-HSD1 Dehydrogenase (Rattus norvegicus, UniProt P16232); test: 11β-HSD1 dehydrogenase inhibition, testicular Leydig cell homogenates; assay type: biochemical; conditions: result in words
T3 construct: testicular leydig cell homogenates; from tissue; host or cells: testicular Leydig cell homogenates
T3 sequence (P16232 whole entry): as above

SMILES: CC(=O)[C@H]1CC[C@H]2[C@@H]3CCC4=CC(=O)CC[C@]4(C)[C@H]3C(=O)C[C@]12C [11-Keto-progesterone]
- 11β-HSD2 Dehydrogenase inhibition (11β-HSD2 Dehydrogenase): Potent Inhibitor
- ability of 11-dehydro-corticosterone to amplify the contractile response to phenylephrine (rat aortic rings): diminished
- 11β-HSD1 Reductase inhibition (11β-HSD1 Reductase): Selective Inhibitor
- metabolism of 11-dehydro-corticosterone back to corticosterone [1]: decreased
- 11β-HSD1 Dehydrogenase inhibition (11β-HSD1 Dehydrogenase): No Inhibition
